Data reported in PMC11864979, “First-in-class ultralong-target-residence-time p38α inhibitors as a mitosis-targeted therapy for colorectal cancer” (Nature Cancer, 2025).
“And” between values parts separate entries of the source, which are not always exact repeats. Identical values can stand only once.

Legend:
[1] = tested on: KAP liver metastasis in Rag2^−/− mice; assay: survival of Rag2^−/− mice with KAP liver metastasis; assay type: in vivo, mouse
Description: Subcutaneous injection, splenic seeding or cecum injection of organoids was performed in 8–10-week-old C57BL/6 N/Crl, Rag2^−/− (B6.Cg-Rag2^tm1.1Cgn/J), or CB17 Scid beige (CB17.Cg-Prkdc^scidLyst^bg-J/Crl) mice, obtained from Charles River. The organoids were dissociated into single cells, washed with PBS and injected in a 1:1 mixture of PBS and Matrigel. For murine organoids, 1 × 10^5 cells were injected into the left and right flanks or the spleen capsule and 2 × 10^6 cells were injected into the cecum wall. For human organoids, 4 × 10^5 cells were injected into the flanks of CB17 Scid beige mice. For splenic seeding and cecum injection, mice were anaesthetized using ketamine (100 mg kg^−1, intraperitoneally) and xylazin (10 mg/kg, intraperitoneally) in NaCl and a small laparotomy below the thorax was performed.

[2] = tested on: KAP-shMapk14 and KAP-shNC organoids; assay: cell viability in KAP-shMapk14 and KAP-shNC organoids treated with doxycycline and 2015; assay type: cell-based, mouse; design: Cell viability (%): concentration or dose not given beside the values; conditions: for Cell viability (%): individual replicates, relative to shNC + DMSO
Description: To produce retroviral particles, Phoenix packaging cells were transfected with retroviral DNA (pRT3GEPIR and pR-BRAF^V600E-Puro) through calcium phosphate transfection. The viral supernatant, supplemented with polybrene (5 µg ml^−1) was applied on cells or dissociated organoids and the infected cultures were selected with puromycin (3 µg ml^−1). Expression of shRNAs and GFP was induced with 5 µg ml^−1 doxycycline (Sigma).
(§1) For in vitro treatment studies, organoids were mechanically dissociated and digested using TrypLE supplemented with 100 µg ml^−1 DNaseI and 10.5 µM Y-27632 dihydrochloride (Invitrogen) at 37 °C. A total of 1,000–2,000 single cells were plated per well in white 96-well plates (Greiner) in culture medium containing 10% GFR Matrigel or Cultrex BME. The treatment with doxycycline (5 µg ml^−1), pharmacological inhibitors or corresponding volumes of DMSO was started 24 h after plating. Doxycycline was obtained from Sigma-Aldrich. […] Cell viability was measured by means of CellTiter-Glo 3D or CellTiter-Glo 2.0 reagent (Promega) according to the manufacturers’ instructions and the Infinite M Plex reader (Tecan, i-control version 3.9.1 software). Results were normalized to vehicle (DMSO) or to shNC. For cell-doubling assays, the cell number was quantified at the corresponding time points using Guava EasyCyte flow cytometer (Luminex, CytoSoft v5.2 software).

KMP organoids = assay: cell viability in KMP organoids; assay type: cell-based, mouse; conditions: for therapeutic effect in KMP organoids (in words): 4 days
Description: A total of 1,000–2,000 single cells were plated per well in white 96-well plates (Greiner) in culture medium containing 10% GFR Matrigel or Cultrex BME. The treatment with doxycycline (5 µg ml^−1), pharmacological inhibitors or corresponding volumes of DMSO was started 24 h after plating. Doxycycline was obtained from Sigma-Aldrich. […] Results were normalized to vehicle (DMSO) or to shNC. For cell-doubling assays, the cell number was quantified at the corresponding time points using Guava EasyCyte flow cytometer (Luminex, CytoSoft v5.2 software).

[3] = in vivo pharmacokinetic studies in mice (plasma, LC-MS); design: species or system mouse; conditions: for concentration at 0 min: 20 mg kg^−1, 0 min of treatment; for concentration at 90 min: 20 mg kg^−1, 90 min of treatment; for AUC / half-life / C^max / t^max: oral administration in mice, 20 mg kg^−1
Description: No mice were excluded during treatment studies. […] GFP imaging of tumors was performed using a Hamamatsu imaging system. For quantification of compounds in the murine plasma, 20 μl of tail-vein blood was diluted with 80 μl of heparin solution, before 200 μl of ice-cold acetonitrile with a defined internal standard was added. The samples were sonicated and centrifuged and the supernatant was subjected to liquid chromatography-mass spectrometry quantification. Full blood analyses were performed with the Sysmex KX-21N hematology analyzer.

[4] = tested on: subcutaneous human PDO6 CRCs; assay: treatment of subcutaneous human PDO6 CRCs in CB17 Scid beige mice; assay type: in vivo, mouse
Description: Subcutaneous injection, splenic seeding or cecum injection of organoids was performed in 8–10-week-old C57BL/6 N/Crl, Rag2^−/− (B6.Cg-Rag2^tm1.1Cgn/J), or CB17 Scid beige (CB17.Cg-Prkdc^scidLyst^bg-J/Crl) mice, obtained from Charles River. The organoids were dissociated into single cells, washed with PBS and injected in a 1:1 mixture of PBS and Matrigel. For murine organoids, 1 × 10^5 cells were injected into the left and right flanks or the spleen capsule and 2 × 10^6 cells were injected into the cecum wall. For human organoids, 4 × 10^5 cells were injected into the flanks of CB17 Scid beige mice. For splenic seeding and cecum injection, mice were anaesthetized using ketamine (100 mg kg^−1, intraperitoneally) and xylazin (10 mg/kg, intraperitoneally) in NaCl and a small laparotomy below the thorax was performed. Upon injection, the puncture region was washed with prewarmed H2O. Within the first week after operation, the mice were treated with the analgesics carprofen and metamizol. The maximum size of individual tumor nodules permitted by the regional authority of the state of Baden-Wuerttemberg (Regierungspraesidium Tübingen: subcutaneous tumor nodules, 1 cm; other tumor nodules, 0.5 cm) was not exceeded.

KAP^2D cells [5] = assay: cell size and DNA content analysis in KAP^2D cells (flow cytometry); assay type: cell-based, mouse; conditions: 1 µM, 1 day
Description: For DNA content analysis, cells were fixed with ethanol, washed and resuspended in PBS containing 50 µg ml^−1 propidium iodide (Invitrogen) and 250 µg ml^−1 RNase A (Qiagen). Apoptosis was analyzed with the FITC annexin V apoptosis detection kit (Biolegend). Both measurements were performed with FACS Canto II (BD) and physical parameters were used to exclude cell debris and cell doublets.

PDO5 = assay: cell viability in patient-derived CRC organoids PDO5; assay type: cell-based, human; conditions: Fig. 3f, replicates
Description: as §1

KAP^2D cells [6] = assay: SA-β-Gal senescence staining and senescence markers in CRC cells and organoids; assay type: cell-based, mouse; conditions: 5 days
Description: SA-β-Gal staining was carried out on sections of snap-frozen tumor tissues. The samples were fixed with 0.5% glutaraldehyde solution (in PBS pH 7.4) for 15 min at room temperature and then washed once with PBS and twice with 1 mM MgCl2 in PBS pH 5.5 (5 min each, at room temperature). Subsequently, the samples were incubated with X-Gal solution (2.45 mM X-Gal, 5 mM K3Fe(CN)6, 5 mM K4Fe(CN)6 and 1 mM MgCl2 in PBS pH 5.5) at 37 °C overnight protected from light. Upon staining, the samples were washed three times with PBS (5 min each), fixed with 4% formalin in PBS for 30 min and again washed with PBS (5 min each, at room temperature).
Immunofluorescence staining on cells and organoids was performed on glass coverslips or tissue culture chambers (Sarstedt). Organoids were plated in medium containing 10% Matrigel or Cultrex BME. The cultures were fixed with 4% paraformaldehyde and stained with specific antibodies and DAPI (Vector Labs). All used antibodies and dilutions are listed in the Nature Portfolio Reporting Summary. For analyzing DNA synthesis, the Molecular Probes Click-iT EdU Alexa Fluor 555 kit was used 24 h after EdU incorporation with DAPI counterstaining. SA-β-Gal staining of cells was performed in cell culture dishes (cells) or tissue culture chambers (organoids) after fixation with 0.5% glutaraldehyde as described above. […]

340 wild-type kinases [7] = target: T1, 340 wild-type kinases (Homo sapiens, UniProt P48729); assay: selectivity profiling in a panel of 340 wild-type kinases (Reaction Biology Europe); assay type: binding; conditions: 1 µM 2015; read-out: CK1alpha1 residual activity
T1 construct: purchased Reaction Biology Europe
T1 sequence (P48729 whole entry): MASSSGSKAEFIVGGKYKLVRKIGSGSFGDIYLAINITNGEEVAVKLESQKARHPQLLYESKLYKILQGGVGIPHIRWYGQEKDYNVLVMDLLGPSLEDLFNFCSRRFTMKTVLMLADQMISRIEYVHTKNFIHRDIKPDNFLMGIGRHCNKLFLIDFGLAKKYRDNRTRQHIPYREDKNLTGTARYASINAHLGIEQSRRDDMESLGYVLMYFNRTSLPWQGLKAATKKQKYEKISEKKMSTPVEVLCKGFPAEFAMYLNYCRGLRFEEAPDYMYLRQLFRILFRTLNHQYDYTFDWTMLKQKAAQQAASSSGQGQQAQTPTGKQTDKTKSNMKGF
Source text: (§2) Potential interactions between 2015 and 340 wild-type kinases were checked by means of a competition binding assay performed by Reaction Biology Europe (Supplementary Table 15).

340 wild-type kinases [8] = target: T2, 340 wild-type kinases (Homo sapiens, UniProt Q9HAZ1); assay: as above; assay type: binding; conditions: 1 µM 2015; read-out: CLK4 residual activity
T2 construct: purchased Reaction Biology Europe
T2 sequence (Q9HAZ1 whole entry): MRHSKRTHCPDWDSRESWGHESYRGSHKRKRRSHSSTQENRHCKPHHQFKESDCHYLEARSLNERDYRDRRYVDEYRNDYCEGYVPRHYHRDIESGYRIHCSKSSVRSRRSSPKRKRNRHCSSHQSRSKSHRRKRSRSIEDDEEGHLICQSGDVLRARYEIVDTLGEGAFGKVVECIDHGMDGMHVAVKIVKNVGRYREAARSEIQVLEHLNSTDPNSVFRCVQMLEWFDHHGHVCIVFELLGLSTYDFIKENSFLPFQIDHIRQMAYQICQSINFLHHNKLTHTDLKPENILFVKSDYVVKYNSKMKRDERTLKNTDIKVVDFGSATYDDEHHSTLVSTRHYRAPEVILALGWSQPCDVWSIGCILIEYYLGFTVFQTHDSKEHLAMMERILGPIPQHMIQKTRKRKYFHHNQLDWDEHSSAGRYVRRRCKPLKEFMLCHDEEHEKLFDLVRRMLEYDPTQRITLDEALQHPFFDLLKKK
Source text: as §2

[9] = Fig. 2i, 0,5 µM, replicates, 5 µM
[10] = Mus musculus, Fig. 2i, 1 µM, replicates
[11] = 0 min of treatment, individual animals
[12] = 45 min of treatment, individual animals
[13] = 90 min of treatment, individual animals
[14] = 180 min of treatment, individual animals
[15] = 480 min of treatment, individual animals
[16] = 1440 min of treatment, individual animals
[17] = mouse, plasma, oral, individual animals

SMILES	therapeutic effect in KMP organoids (in words) (KMP organoids)	Cell viability (%) (KMP organoids; [9])	Cell viability (%) (KMP organoids; Fig. 2i, 0,25 µM, replicates)	Cell viability (%) (KMP organoids; Fig. 2i, 1 µM, replicates)	viability at 1 µM (KMP organoids; [10])	Plasma concentration [3, 11]	Plasma concentration [3, 12]	Plasma concentration [3, 13]	Plasma concentration [3, 14]	Plasma concentration [3, 15]	Plasma concentration [3, 16]	concentration at 0 min [3, 17]	concentration at 90 min [3, 17]	AUC ([3]; mouse, plasma)	half-life ([3]; mouse, plasma)	C^max [3]	t^max [3]	Cell viability (%) (PDO5; 0,5 µM, 5 µM)	Cell viability (%) (PDO5; 0,25 µM, 25 µM)	Cell viability (%) (PDO5; 1 µM)	also measured
CNC(=O)c1ccc2c(c1)C(=O)c1ccc(Nc3ccc(F)c(NC(=O)C4CC4)c3)cc1CC2 [Compound 2015]	increased responsiveness	17.63% and 7.81% and 29.91%	27.91% and 21.06%	17.15% and 26.00%	27.8%	0.00 µM	20.46 µM and 14.73 µM	17.75 µM and 16.83 µM	13.04 µM and 13.78 µM	2.27 µM and 3.36 µM	0.20 µM and 0.04 µM (2×)	0 nM	25.2 µM	121 µM·h	2.68 h	20.7 µM	45 min	16.61% and 12.02%	73.65% and 55.49%	16.85% and 11.03%	treatment response in Rag2^−/− mice (in words) ([1]; KAP liver metastasis): strong treatment response; Survival ([1]; single animals, 1 = event, Fig. 6i): 40 d of treatment and 34 d of treatment and 32 d of treatment and 39 d of treatment and 38 d of treatment and 25 d of treatment; response of KAP-shMapk14.2605 organoids (in words) ([2]; doxycycline-induced Mapk14-shRNA expression): did not respond; Cell viability (%) ([2]; shMapk14.2605 + 2015): 22.20% and 48.13% and 45.94%; Cell viability (%) ([2]; shNC + 2015): 31.98% and 25.43% and 20.36%; concentration at 45 min ([3]; mouse, plasma, oral, 20 mg kg^−1, 45 min of treatment, individual animals): 26.8 µM; concentration at 180 min ([3]; mouse, plasma, oral, 20 mg kg^−1, 180 min of treatment, individual animals): 17 µM; concentration at 480 min ([3]; mouse, plasma, oral, 20 mg kg^−1, 480 min of treatment, individual animals): 4.26 µM; Tumor weight ([4]; individual subcutaneous PDO6 tumors, treated 4 weeks): 25 g and 16 g and 4 g and 32 g; tumor size of PDO6-derived CRCs (in words) ([4]; treated for 4 weeks): strong reduction in tumor size; DNA content (in words) (KAP^2D cells [5]): strong induction of aneuploidy and polyploidy; viability at 1 µM (PDO5; Homo sapiens, 1 µM): 12.7%; senescence (SA-β-Gal, p16^Ink4a, HMGA2) (in words) (KAP^2D cells [6]): clear senescence phenotype; remaining activity at 1 µM (340 wild-type kinases [7]): 94.9%; remaining activity at 1 µM (340 wild-type kinases [8]): 118%
O=C(NCCN1CCOCC1)c1ccc2c(c1)C(=O)c1ccc(Nc3ccc(F)c(NC(=O)c4ccccc4)c3)cc1CC2 [Compound 1639]	no therapeutic effects	101.57% and 92.29%	98.98% and 85.31% and 57.91%	98.40% and 93.50%	105%	0.00 µM	7.88 µM and 3.04 µM and 8.11 µM	5.28 µM and 6.24 µM	4.65 µM and 2.91 µM and 1.27 µM	0.69 µM and 0.19 µM and 0.76 µM	0.00 µM	0 nM	8.68 µM	27.6 µM·h	2 h	6.7 µM	90 min	95.85% and 89.27%	102.83% and 96.93% and 77.02%	104.30% and 89.98% and 81.04%	viability at 5 µM (KMP organoids; Mus musculus, Fig. 2i, 0,5 µM, replicates): 85.5%; concentration at 1440 min ([3]; mouse, plasma, oral, 20 mg kg^−1, 1440 min of treatment, individual animals): 0 nM
